Results as given in patent US9902722B2, “Biaryl kinase inhibitors” (BRISTOL-MYERS SQUIBB COMPANY, priority 2014, dated 2018).
pIC50: −log10 of the molar value.
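Also: each compound tested across an eleven-point concentration series, with IC50 obtained through non-linear regression fitting.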

What follows are compounds tested against GST-Xa-hAAK1 (Homo sapiens (Human), UniProt Q2M2I8) (assay: AAK1 Kinase Assay). Settings: bacterially expressed GST-Xa-hAAK1 3.5 nM; ATP 22 μM; peptide substrate 1.5 μM; 3 hours at room temperature; Caliper LabChip 3000.
Chain of GST-Xa-hAAK1 (Q2M2I8 whole entry): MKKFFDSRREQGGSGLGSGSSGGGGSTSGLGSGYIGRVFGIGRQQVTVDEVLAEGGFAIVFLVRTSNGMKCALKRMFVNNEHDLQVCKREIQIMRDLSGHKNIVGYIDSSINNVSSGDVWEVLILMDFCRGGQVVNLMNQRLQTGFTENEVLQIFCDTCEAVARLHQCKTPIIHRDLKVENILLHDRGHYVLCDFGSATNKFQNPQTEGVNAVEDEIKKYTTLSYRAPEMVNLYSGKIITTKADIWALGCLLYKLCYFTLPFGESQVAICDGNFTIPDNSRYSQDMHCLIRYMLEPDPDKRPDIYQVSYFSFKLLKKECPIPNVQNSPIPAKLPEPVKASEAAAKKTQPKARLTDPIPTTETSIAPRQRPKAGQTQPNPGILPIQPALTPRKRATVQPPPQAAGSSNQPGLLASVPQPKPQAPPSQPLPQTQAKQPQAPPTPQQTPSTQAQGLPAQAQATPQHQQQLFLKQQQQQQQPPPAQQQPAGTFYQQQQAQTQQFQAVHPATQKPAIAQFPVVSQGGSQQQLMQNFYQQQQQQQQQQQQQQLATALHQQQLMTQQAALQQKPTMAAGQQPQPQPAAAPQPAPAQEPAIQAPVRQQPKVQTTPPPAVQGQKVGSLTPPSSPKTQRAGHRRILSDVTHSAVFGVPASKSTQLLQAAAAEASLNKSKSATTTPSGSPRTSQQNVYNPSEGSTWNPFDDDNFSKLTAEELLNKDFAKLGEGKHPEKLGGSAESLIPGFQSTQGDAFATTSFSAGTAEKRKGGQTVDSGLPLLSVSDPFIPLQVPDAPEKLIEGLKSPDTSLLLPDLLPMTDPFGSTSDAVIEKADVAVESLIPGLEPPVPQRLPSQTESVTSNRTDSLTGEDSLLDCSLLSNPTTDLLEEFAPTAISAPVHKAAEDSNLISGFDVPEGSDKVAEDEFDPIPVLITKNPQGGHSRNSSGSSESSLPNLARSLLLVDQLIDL
Type: biochemical
Experimental: The assays were performed in U-bottom 384-well plates. […] The reactions were initiated by the combination of bacterially expressed, GST-Xa-hAAK1 with substrates and test compounds. The reactions were incubated at room temperature for 3 hours and terminated by adding 60 μl of 35 mM EDTA buffer to each sample. […] Compounds were dissolved at 10 mM in dimethylsulfoxide (DMSO) and evaluated at eleven concentrations. IC50 values were derived by non-linear regression analysis.
CC(=O)Nc1cc(-c2ccc(OC[C@@](C)(N)CC(C)C)c(OC(F)(F)F)c2)ccn1 [Example 25, (S)—N-(4-(4-((2-amino-2,4-dimethylpentyl)oxy)-3-(trifluoromethoxy)phenyl)pyridin-2-yl)acetamide] showed a pIC50 of 9.00.
Compound COC(=O)Nc1cc(-c2ccc(OC[C@@](C)(N)CC(C)C)c(C)n2)c(F)cn1 [Example 155, (S)-methyl (5-((2-amino-2,4-dimethylpentyl)oxy)-5′-fluoro-6-methyl-[2,4′-bipyridin]-2′-yl)carbamate] has a pIC50 of 7.24.
For CC(C)C[C@@](N)(CF)COc1ccc(-c2ccnc(C(F)F)c2)nc1C(F)F [Example 183, (S)-1-((2′,6-bis(difluoromethyl)-[2,4′-bipyridin]-5-yl)oxy)-2-(fluoromethyl)-4-methylpentan-2-amine], the pIC50 was 8.06.
Cc1nc(-c2ccnc(N)c2F)ccc1OC[C@@](C)(N)CC(C)C [Example 153, (S)-5-((2-amino-2,4-dimethylpentyl)oxy)-3′-fluoro-6-methyl-[2,4′-bipyridin]-2′-amine] showed a pIC50 of 8.72.
CC(C)C[C@](C)(N)COc1ccc(C2=CCOCC2)cc1C(F)(F)F [Example 215, (S)-1-(4-(3,6-dihydro-2H-pyran-4-yl)-2-(trifluoromethyl)phenoxy)-2,4-dimethylpentan-2-amine] was tested, and the pIC50 was 6.71.
CC(=O)Nc1cc(-c2ccc(OC[C@@H](N)CC(C)C)c(Cl)c2)ccn1 [Example 8, (S)—N-(4-(4-((2-amino-4-methylpentyl)oxy)-3-chlorophenyl)pyridin-2-yl)acetamide] showed a pIC50 of 9.28.
CC(C)C[C@](C)(N)COc1ncc(-c2ccnc3ccccc23)cc1C(F)(F)F [Example 219, (S)-2,4-dimethyl-1-((5-(quinolin-4-yl)-3-(trifluoromethyl)pyridin-2-yl)oxy)pentan-2-amine] gave a pIC50 of 9.23.
For CC(C)C[C@](C)(N)COc1cnc(-c2ccnc3ccc(OC(F)(F)F)cc23)cc1C(F)F [Example 134, (S)-1-((4-(difluoromethyl)-6-(6-(trifluoromethoxy)quinolin-4-yl)pyridin-3-yl)oxy)-2,4-dimethylpentan-2-amine], the pIC50 was 8.36.
With CC(C)C[C@](C)(N)COc1ncc(-c2ccnc3ccccc23)cc1C(F)F [Example 204, (S)-1-((3-(difluoromethyl)-5-(quinolin-4-yl)pyridin-2-yl)oxy)-2,4-dimethylpentan-2-amine] the pIC50 was 9.64.
Cc1cc(-c2ccc(OC[C@@](C)(N)CC(C)C)c(C)c2)ccn1 [Example 90, (S)-2,4-dimethyl-1-(2-methyl-4-(2-methylpyridin-4-yl)phenoxy)pentan-2-amine] showed a pIC50 of 8.59.
Compound CC(=O)Nc1cc(-c2ccc(OC[C@@](C)(N)CC(C)C)c(C(F)(F)F)c2)c(CO)cn1 [Example 34, (S)—N-(4-(4-((2-amino-2,4-dimethylpentyl)oxy)-3-(trifluoromethyl)phenyl)-5-(hydroxymethyl)pyridin-2-yl)acetamide] has a pIC50 of 7.82.
With Cc1cc(-c2cnc(OC[C@@](C)(N)CC(C)C)c(C(F)F)c2)ccn1 [Example 194, (S)-1-((5-(difluoromethyl)-2′-methyl-[3,4′-bipyridin]-6-yl)oxy)-2,4-dimethylpentan-2-amine] the pIC50 was 8.82.
Cc1cc(-c2ccnc(F)c2)cnc1OC[C@@](C)(N)CC(C)C [Example 95, (S)-1-((2′-fluoro-5-methyl-[3,4′-bipyridin]-6-yl)oxy)-2,4-dimethylpentan-2-amine] showed a pIC50 of 7.41.
Work on CC(C)C[C@](C)(N)COc1cnc(-c2ccnc3ccc(Cl)cc23)cc1Cl [Example 239, (S)-1-((4-chloro-6-(6-chloroquinolin-4-yl)pyridin-3-yl)oxy)-2,4-dimethylpentan-2-amine] yielded a pIC50 of 9.41.
With CC(=O)Nc1cccc(-c2ccc(OC[C@](C)(N)CC(C)C)c(C)c2)c1 [Example 251] the pIC50 was 5.96.
In the case of CC(C)C[C@](C)(N)COc1ccc(-c2ccnc3ccccc23)cc1C1CC1 [Example 74, (S)-1-(2-cyclopropyl-4-(quinolin-4-yl)phenoxy)-2,4-dimethylpentan-2-amine], the pIC50 was 10.15.
For Cc1nccc(-c2ccc(OC[C@@](C)(N)CC(C)C)c(C#N)c2)c1F [Example 103, (S)-2-((2-amino-2,4-dimethylpentyl)oxy)-5-(3-fluoro-2-methylpyridin-4-yl)benzonitrile], the pIC50 was 9.17.
CC(C)C[C@](C)(N)COc1cnc(-c2ccnc3cc(F)cc(F)c23)cc1Cl [Example 233, (S)-1-((4-chloro-6-(5,7-difluoroquinolin-4-yl)pyridin-3-yl)oxy)-2,4-dimethylpentan-2-amine] gave a pIC50 of 9.14.
For CC(C)C[C@](C)(N)COc1ccc(-c2ccncc2)cc1C(F)(F)F [Example 43, (S)-2,4-dimethyl-1-(4-(pyridin-4-yl)-2-(trifluoromethyl)phenoxy)pentan-2-amine], the pIC50 was 9.19.
In the case of CC(=O)Nc1cccc(-c2ccc(OCC(C)(N)CC(C)C)c(C)c2)c1 (centres unmarked) [Example 250, N-(4′-((2-amino-2,4-dimethylpentyl)oxy)-3′-methyl-[1,1′-biphenyl]-3-yl)acetamide], the pIC50 was 6.18.
In the case of COC(=O)Nc1nccc(-c2ccc(OC[C@@](C)(N)CC(C)C)c(C)n2)c1F [Example 157, (S)-methyl (5-((2-amino-2,4-dimethylpentyl)oxy)-3′-fluoro-6-methyl-[2,4′-bipyridin]-2′-yl)carbamate], the pIC50 was 7.72.
Cc1cc(-c2ccc(OC[C@@H](N)CC(C)C)c(C#N)c2)cnn1 [Example 109, (S)-2-((2-amino-4-methylpentyl)oxy)-5-(6-methylpyridazin-4-yl)benzonitrile] was tested, and the pIC50 was 6.47.
Work on CCc1cc(-c2cc(C(F)F)c(OC[C@@](C)(N)CC(C)C)cn2)ccn1 [Example 141, (S)-1-((4-(difluoromethyl)-2′-ethyl-[2,4′-bipyridin]-5-yl)oxy)-2,4-dimethylpentan-2-amine] yielded a pIC50 of 8.74.
In the case of Cc1cc(-c2ccnc3cc(F)ccc23)ncc1OC[C@@](C)(N)CC(C)C [Example 227, (S)-1-((6-(7-fluoroquinolin-4-yl)-4-methylpyridin-3-yl)oxy)-2,4-dimethylpentan-2-amine], the pIC50 was 9.03.
CC(=O)Nc1cc(-c2ccc(OC[C@@H](N)CC(C)C)c(C(F)(F)F)c2)ccn1 [Example 5, (S)—N-(4-(4-((2-amino-4-methylpentyl)oxy)-3-(trifluoromethyl)phenyl)pyridin-2-yl)acetamide] showed a pIC50 of 9.30.
Compound CC(C)C[C@](C)(N)COc1ccc(-c2ccnc3cccnc23)cc1C#N [Example 87, (S)-2-((2-amino-2,4-dimethylpentyl)oxy)-5-(1,5-naphthyridin-4-yl)benzonitrile] has a pIC50 of 9.06.
Cc1cc(-c2ccc(OC[C@@](C)(N)CC(C)C)c(C#N)c2)c(F)cn1 [Example 105, (S)-2-((2-amino-2,4-dimethylpentyl)oxy)-5-(5-fluoro-2-methylpyridin-4-yl)benzonitrile] was tested, and the pIC50 was 9.14.
For COC(=O)Nc1cc(-c2cnc(OC[C@@](C)(N)CC(C)C)nc2)ccn1 [Example 211, (S)-methyl (4-(2-((2-amino-2,4-dimethylpentyl)oxy)pyrimidin-5-yl)pyridin-2-yl)carbamate], the pIC50 was 6.31.
CC(C)C[C@](C)(N)COc1ncc(-c2ccnc3cc(C#N)ccc23)cc1F [Example 99, (S)-4-(6-((2-amino-2,4-dimethylpentyl)oxy)-5-fluoropyridin-3-yl)quinoline-7-carbonitrile] was tested, and the pIC50 was 7.51.
